Results reported in the NIST ThermoML archive (doi:10.1021/je049787p).
Numbers after ± are expanded uncertainties.

Experiment: xn = mol fraction of the nth substance listed
Conditions: 101.3 kPa, Liquid; for electrical conductivity: Alternating current cell with electrodes

For C=CCn1cc[n+](C)c1.[Cl-] [1-allyl-3-methylimidazolium chloride] + CCO, the electrical conductivity (293.15 K, x2 = 0) was 0.382 S/m, the electrical conductivity (293.15 K, x2 = 0.1) was 0.485 S/m and the electrical conductivity (293.15 K, x2 = 0.2) was 0.627 S/m. For the same molecule, the electrical conductivity (293.15 K, x2 = 0.3) was 0.703 S/m, the electrical conductivity (293.15 K, x2 = 0.35) was 0.8 S/m and the electrical conductivity (293.15 K, x2 = 0.45) was 0.884 S/m. The electrical conductivity (293.15 K, x2 = 0.5) was 0.952 S/m, the electrical conductivity (293.15 K, x2 = 0.55) was 1.03 S/m and the viscosity (293.15 K, x2 = 0) was 66 ± 10 mPa·s. The viscosity (293.15 K, x2 = 0.1) was 54.6 ± 3 mPa·s, the viscosity (293.15 K, x2 = 0.2) was 45.7 ± 6 mPa·s and the viscosity (293.15 K, x2 = 0.3) was 39.1 ± 5.1 mPa·s. For the same molecule, the viscosity (293.15 K, x2 = 0.35) was 30.5 ± 4.1 mPa·s, the viscosity (293.15 K, x2 = 0.45) was 26.4 ± 3.5 mPa·s and the viscosity (293.15 K, x2 = 0.5) was 23.2 ± 3.1 mPa·s. It also gave a viscosity (293.15 K, x2 = 0.55) of 20.4 ± 2.8 mPa·s, an electrical conductivity (303.15 K, x2 = 0) of 0.44 S/m and an electrical conductivity (303.15 K, x2 = 0.1) of 0.543 S/m. It also gave an electrical conductivity (303.15 K, x2 = 0.2) of 0.682 S/m, an electrical conductivity (303.15 K, x2 = 0.3) of 0.759 S/m and an electrical conductivity (303.15 K, x2 = 0.35) of 0.855 S/m. It also gave an electrical conductivity (303.15 K, x2 = 0.45) of 0.943 S/m, an electrical conductivity (303.15 K, x2 = 0.5) of 1.01 S/m and an electrical conductivity (303.15 K, x2 = 0.55) of 1.09 S/m. It also gave a viscosity (303.15 K, x2 = 0) of 44.7 ± 5.9 mPa·s, a viscosity (303.15 K, x2 = 0.1) of 44.1 ± 5.8 mPa·s and a viscosity (303.15 K, x2 = 0.2) of 42.2 ± 5.5 mPa·s. The viscosity (303.15 K, x2 = 0.3) was 30.9 ± 4.1 mPa·s, the viscosity (303.15 K, x2 = 0.35) was 25.1 ± 3.4 mPa·s and the viscosity (303.15 K, x2 = 0.45) was 22.1 ± 3 mPa·s. It also gave a viscosity (303.15 K, x2 = 0.5) of 18.1 ± 2.5 mPa·s, a viscosity (303.15 K, x2 = 0.55) of 16.3 ± 2.3 mPa·s and an electrical conductivity (313.15 K, x2 = 0) of 0.501 S/m. The electrical conductivity (313.15 K, x2 = 0.1) was 0.604 S/m, the electrical conductivity (313.15 K, x2 = 0.2) was 0.74 S/m and the electrical conductivity (313.15 K, x2 = 0.3) was 0.818 S/m. The electrical conductivity (313.15 K, x2 = 0.35) was 0.91 S/m, the electrical conductivity (313.15 K, x2 = 0.45) was 0.999 S/m and the electrical conductivity (313.15 K, x2 = 0.5) was 1.06 S/m. The electrical conductivity (313.15 K, x2 = 0.55) was 1.14 S/m, the viscosity (313.15 K, x2 = 0) was 25.3 ± 3.5 mPa·s and the viscosity (313.15 K, x2 = 0.1) was 24.6 ± 3.4 mPa·s. The viscosity (313.15 K, x2 = 0.2) was 24.1 ± 3.3 mPa·s, the viscosity (313.15 K, x2 = 0.3) was 22.6 ± 3.1 mPa·s and the viscosity (313.15 K, x2 = 0.35) was 19.4 ± 2.7 mPa·s. For the same molecule, the viscosity (313.15 K, x2 = 0.45) was 20.1 ± 2.8 mPa·s, the viscosity (313.15 K, x2 = 0.5) was 15.3 ± 2.2 mPa·s and the viscosity (313.15 K, x2 = 0.55) was 14 ± 2 mPa·s. For the same molecule, the electrical conductivity (323.15 K, x2 = 0) was 0.562 S/m, the electrical conductivity (323.15 K, x2 = 0.1) was 0.66 S/m and the electrical conductivity (323.15 K, x2 = 0.2) was 0.801 S/m. The electrical conductivity (323.15 K, x2 = 0.3) was 0.876 S/m, the electrical conductivity (323.15 K, x2 = 0.35) was 0.969 S/m and the electrical conductivity (323.15 K, x2 = 0.45) was 1.06 S/m. The electrical conductivity (323.15 K, x2 = 0.5) was 1.11 S/m, the electrical conductivity (323.15 K, x2 = 0.55) was 1.2 S/m and the viscosity (323.15 K, x2 = 0) was 20.6 ± 2.8 mPa·s. It also gave a viscosity (323.15 K, x2 = 0.1) of 20 ± 2.8 mPa·s, a viscosity (323.15 K, x2 = 0.2) of 19.5 ± 2.7 mPa·s and a viscosity (323.15 K, x2 = 0.3) of 18.7 ± 2.6 mPa·s. It also gave a viscosity (323.15 K, x2 = 0.35) of 16 ± 2.2 mPa·s, a viscosity (323.15 K, x2 = 0.45) of 16.7 ± 2.3 mPa·s and a viscosity (323.15 K, x2 = 0.5) of 13.6 ± 1.9 mPa·s. For the same molecule, the viscosity (323.15 K, x2 = 0.55) was 12.5 ± 1.8 mPa·s, the electrical conductivity (333.15 K, x2 = 0) was 0.624 S/m and the electrical conductivity (333.15 K, x2 = 0.1) was 0.722 S/m. It also gave an electrical conductivity (333.15 K, x2 = 0.2) of 0.859 S/m, an electrical conductivity (333.15 K, x2 = 0.3) of 0.935 S/m and an electrical conductivity (333.15 K, x2 = 0.35) of 1.02 S/m. The electrical conductivity (333.15 K, x2 = 0.45) was 1.11 S/m, the electrical conductivity (333.15 K, x2 = 0.5) was 1.17 S/m and the electrical conductivity (333.15 K, x2 = 0.55) was 1.25 S/m. For the same molecule, the viscosity (333.15 K, x2 = 0) was 16.2 ± 2.3 mPa·s, the viscosity (333.15 K, x2 = 0.1) was 16 ± 2.3 mPa·s and the viscosity (333.15 K, x2 = 0.2) was 15.4 ± 2.2 mPa·s. It also gave a viscosity (333.15 K, x2 = 0.3) of 15.1 ± 2.1 mPa·s, a viscosity (333.15 K, x2 = 0.35) of 14.4 ± 2 mPa·s and a viscosity (333.15 K, x2 = 0.45) of 13.1 ± 1.9 mPa·s. The viscosity (333.15 K, x2 = 0.5) was 11.2 ± 1.6 mPa·s and the viscosity (333.15 K, x2 = 0.55) was 10.1 ± 1.5 mPa·s.

Molecule C=CCn1cc[n+](C)c1.[Cl-] [1-allyl-3-methylimidazolium chloride] + O has an electrical conductivity (293.15 K, x2 = 0) of 0.382 S/m, an electrical conductivity (293.15 K, x2 = 0.3) of 0.817 S/m and an electrical conductivity (293.15 K, x2 = 0.45) of 1.11 S/m. The electrical conductivity (293.15 K, x2 = 0.59) was 1.36 S/m, the electrical conductivity (293.15 K, x2 = 0.65) was 1.55 S/m and the electrical conductivity (293.15 K, x2 = 0.7) was 1.73 S/m. The electrical conductivity (293.15 K, x2 = 0.75) was 1.84 S/m, the electrical conductivity (293.15 K, x2 = 0.8) was 1.93 S/m and the viscosity (293.15 K, x2 = 0) was 66 ± 10 mPa·s. It also gave a viscosity (293.15 K, x2 = 0.3) of 51.3 ± 1.5 mPa·s, a viscosity (293.15 K, x2 = 0.45) of 42.7 ± 5.6 mPa·s and a viscosity (293.15 K, x2 = 0.59) of 34.4 ± 4.5 mPa·s. The viscosity (293.15 K, x2 = 0.65) was 29.1 ± 3.9 mPa·s, the viscosity (293.15 K, x2 = 0.7) was 26.1 ± 3.5 mPa·s and the viscosity (293.15 K, x2 = 0.75) was 22.6 ± 3.1 mPa·s. It also gave a viscosity (293.15 K, x2 = 0.8) of 19.3 ± 2.6 mPa·s, an electrical conductivity (303.15 K, x2 = 0) of 0.44 S/m and an electrical conductivity (303.15 K, x2 = 0.3) of 0.874 S/m. It also gave an electrical conductivity (303.15 K, x2 = 0.45) of 1.17 S/m, an electrical conductivity (303.15 K, x2 = 0.59) of 1.42 S/m and an electrical conductivity (303.15 K, x2 = 0.65) of 1.61 S/m. The electrical conductivity (303.15 K, x2 = 0.7) was 1.78 S/m, the electrical conductivity (303.15 K, x2 = 0.75) was 1.89 S/m and the electrical conductivity (303.15 K, x2 = 0.8) was 1.99 S/m. It also gave a viscosity (303.15 K, x2 = 0) of 44.7 ± 5.9 mPa·s, a viscosity (303.15 K, x2 = 0.3) of 40.7 ± 5.3 mPa·s and a viscosity (303.15 K, x2 = 0.45) of 31.4 ± 4.2 mPa·s. The viscosity (303.15 K, x2 = 0.59) was 27.5 ± 3.7 mPa·s, the viscosity (303.15 K, x2 = 0.65) was 24.2 ± 3.3 mPa·s and the viscosity (303.15 K, x2 = 0.7) was 22 ± 3 mPa·s. It also gave a viscosity (303.15 K, x2 = 0.75) of 18.7 ± 2.6 mPa·s, a viscosity (303.15 K, x2 = 0.8) of 15.6 ± 2.2 mPa·s and an electrical conductivity (313.15 K, x2 = 0) of 0.501 S/m. The electrical conductivity (313.15 K, x2 = 0.3) was 0.93 S/m, the electrical conductivity (313.15 K, x2 = 0.45) was 1.23 S/m and the electrical conductivity (313.15 K, x2 = 0.59) was 1.47 S/m. It also gave an electrical conductivity (313.15 K, x2 = 0.65) of 1.66 S/m, an electrical conductivity (313.15 K, x2 = 0.7) of 1.84 S/m and an electrical conductivity (313.15 K, x2 = 0.75) of 1.95 S/m. The electrical conductivity (313.15 K, x2 = 0.8) was 2.04 S/m, the viscosity (313.15 K, x2 = 0) was 25.3 ± 3.5 mPa·s and the viscosity (313.15 K, x2 = 0.3) was 24.1 ± 3.3 mPa·s. For the same molecule, the viscosity (313.15 K, x2 = 0.45) was 22.9 ± 3.1 mPa·s, the viscosity (313.15 K, x2 = 0.59) was 22.7 ± 3.1 mPa·s and the viscosity (313.15 K, x2 = 0.65) was 20.9 ± 2.8 mPa·s. For the same molecule, the viscosity (313.15 K, x2 = 0.7) was 19.5 ± 2.7 mPa·s, the viscosity (313.15 K, x2 = 0.75) was 15.4 ± 2.2 mPa·s and the viscosity (313.15 K, x2 = 0.8) was 12.7 ± 1.8 mPa·s. For the same molecule, the electrical conductivity (323.15 K, x2 = 0) was 0.562 S/m, the electrical conductivity (323.15 K, x2 = 0.3) was 0.985 S/m and the electrical conductivity (323.15 K, x2 = 0.45) was 1.28 S/m. For the same molecule, the electrical conductivity (323.15 K, x2 = 0.59) was 1.53 S/m, the electrical conductivity (323.15 K, x2 = 0.65) was 1.72 S/m and the electrical conductivity (323.15 K, x2 = 0.7) was 1.89 S/m. The electrical conductivity (323.15 K, x2 = 0.75) was 2 S/m, the electrical conductivity (323.15 K, x2 = 0.8) was 2.09 S/m and the viscosity (323.15 K, x2 = 0) was 20.6 ± 2.8 mPa·s. The viscosity (323.15 K, x2 = 0.3) was 19.6 ± 2.7 mPa·s, the viscosity (323.15 K, x2 = 0.45) was 18.2 ± 2.5 mPa·s and the viscosity (323.15 K, x2 = 0.59) was 18.3 ± 2.5 mPa·s. It also gave a viscosity (323.15 K, x2 = 0.65) of 17.6 ± 2.4 mPa·s, a viscosity (323.15 K, x2 = 0.7) of 16.4 ± 2.3 mPa·s and a viscosity (323.15 K, x2 = 0.75) of 12.2 ± 1.8 mPa·s. It also gave a viscosity (323.15 K, x2 = 0.8) of 11.1 ± 1.6 mPa·s, an electrical conductivity (333.15 K, x2 = 0) of 0.624 S/m and an electrical conductivity (333.15 K, x2 = 0.3) of 1.04 S/m. For the same molecule, the electrical conductivity (333.15 K, x2 = 0.45) was 1.33 S/m, the electrical conductivity (333.15 K, x2 = 0.59) was 1.58 S/m and the electrical conductivity (333.15 K, x2 = 0.65) was 1.77 S/m. For the same molecule, the electrical conductivity (333.15 K, x2 = 0.7) was 1.94 S/m, the electrical conductivity (333.15 K, x2 = 0.75) was 2.05 S/m and the electrical conductivity (333.15 K, x2 = 0.8) was 2.14 S/m. The viscosity (333.15 K, x2 = 0) was 16.2 ± 2.3 mPa·s, the viscosity (333.15 K, x2 = 0.3) was 15 ± 2.1 mPa·s and the viscosity (333.15 K, x2 = 0.45) was 15.1 ± 2.1 mPa·s. The viscosity (333.15 K, x2 = 0.59) was 14.9 ± 2.1 mPa·s, the viscosity (333.15 K, x2 = 0.65) was 14.3 ± 2 mPa·s and the viscosity (333.15 K, x2 = 0.7) was 13 ± 1.9 mPa·s. For the same molecule, the viscosity (333.15 K, x2 = 0.75) was 10.1 ± 1.5 mPa·s and the viscosity (333.15 K, x2 = 0.8) was 9.2 ± 1.4 mPa·s.
